Experiment [1] deals with T1, BCL6 (Homo sapiens (Human), UniProt P41182). The experiment in a line: Immunofluorescence high content imaging of BCL6 degradation in T47D cells. Format: cell-based. The method, boiled down:
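Read-out is BCL6 immunofluorescence quantified by high-content imaging (10×, 4 fields per well) of T47D breast cancer cells. Cells were exposed for 3 days to degrader in an 11-point, 3-fold serial dilution reaching a final top concentration of 0.1 or 1 μM.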

For experiment [2], the target named is T1, BCL6. The experiment in a line: BCL6 TR-FRET assay (BCL6-Avitag-Biotin / BCoR-Cy5 peptide). Particulars: for IC50: read-out: IC50. The class given is binding. The gist of the method:
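TR-FRET displacement assay: biotinylated His-SUMO-BCL6-Avitag (2 nM) pre-incubated 30 min at room temperature with compound (12-point 3-fold titration), then BCoR-Cy5 peptide (100 nM) and Eu-streptavidin (2 nM) added. Buffer: 50 mM HEPES pH 7.5, 125 mM NaCl, 0.01% Triton X, glutathione or DTT, 0.03% BSA. Read after 2 h.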

IC50, EC50 and Dmax data for 16 molecules are collected here from patent US12310975B2, “Modulators of BCL6 proteolysis and associated methods of use” (Arvinas Operations, Inc., priority 2019, dated 2025).

A value given as a limit tells only on which side of the number the result lay.

`CNC(=O)C1Oc2cc(Nc3nc(N4CCN(C(C)(C)C5CCN(c6ccc7c(c6)C(=O)N(C6CCC(=O)NC6=O)C7=O)CC5)CC4)ncc3Cl)ccc2N(C)C1=O` (stereo not shown) [compound 274, 7-({5-chloro-2-[4-(2-{1-[2-(2,6-dioxopiperidin-3-yl)-1,3-dioxo-2,3-dihydro-1H-isoindol-5-yl]piperidin-4-yl}propan-2-yl)piperazin-1-yl]pyrimidin-4-yl}amino)-N,4-dimethyl-3-oxo-3,4-dihydro-2H-1,4-benzoxazine-2-carboxamide] displayed an IC50 in experiment [1] of at least 100 nM. For the same molecule, in experiment [2], the EC50 is above 100 nM.
As for `CNC(=O)COc1cc2cc(Nc3nc(N4CCN(CC5CCN(c6cccc(F)c6C(=O)NC6CCC(=O)NC6=O)CC5)CC4)ncc3Cl)ccc2n(C)c1=O` (stereo not shown) [compound 275, 2-[4-({4-[5-chloro-4-({1-methyl-3-[(methylcarbamoyl)methoxy]-2-oxo-1,2-dihydroquinolin-6-yl}amino)pyrimidin-2-yl]piperazin-1-yl}methyl)piperidin-1-yl]-N-(2,6-dioxopiperidin-3-yl)-6-fluorobenzamide], in experiment [1], the IC50 is below 10 nM. Also, the Dmax in experiment [1] (T47D) was below 50%. This molecule displayed a concentration giving a half-maximal response (EC50) in experiment [2] of 10 to 50 nM.
For `CNC(=O)COc1cc2cc(Nc3nc(N4CCN(CC5CCN(c6ccc(C(=O)NC7CCC(=O)NC7=O)cc6)CC5)CC4)ncc3Cl)ccc2n(C)c1=O` (stereo not shown) [compound 276, 4-[4-({4-[5-chloro-4-({1-methyl-3-[(methylcarbamoyl)methoxy]-2-oxo-1,2-dihydroquinolin-6-yl}amino)pyrimidin-2-yl]piperazin-1-yl}methyl)piperidin-1-yl]-N-(2,6-dioxopiperidin-3-yl)benzamide], in that order: at least 100 nM, below 50% and below 10 nM.
Molecule `CNC(=O)COc1cc2cc(Nc3nc(N4CCN(CC5CCN(c6ccc(F)c(C(=O)NC7CCC(=O)NC7=O)c6)CC5)CC4)ncc3Cl)ccc2n(C)c1=O` (stereo not shown) [compound 277, 5-[4-({4-[5-chloro-4-({1-methyl-3-[(methylcarbamoyl)methoxy]-2-oxo-1,2-dihydroquinolin-6-yl}amino)pyrimidin-2-yl]piperazin-1-yl}methyl)piperidin-1-yl]-N-(2,6-dioxopiperidin-3-yl)-2-fluorobenzamide] showed an IC50 in experiment [1] of 10 to 50 nM. In addition, the greatest degradation seen (Dmax) in experiment [1] (T47D) was below 50%. In experiment [2], this molecule had an EC50 below 10 nM.
In turn, `CNC(=O)COc1cc2cc(Nc3nc(N4CCN(CC5CCN(c6ccc(C(=O)NC7CCC(=O)NC7=O)nn6)CC5)CC4)ncc3Cl)ccc2n(C)c1=O` (stereo not shown) [compound 278, 6-[4-({4-[5-chloro-4-({1-methyl-3-[(methylcarbamoyl)methoxy]-2-oxo-1,2-dihydroquinolin-6-yl}amino)pyrimidin-2-yl]piperazin-1-yl}methyl)piperidin-1-yl]-N-(2,6-dioxopiperidin-3-yl)pyridazine-3-carboxamide] had an IC50 in experiment [1] of 50 to 100 nM. Moreover, in experiment [1] (T47D), the Dmax is below 50%. In experiment [2], this molecule yielded an EC50 below 10 nM.
Take `CNC(=O)COc1cc2cc(Nc3nc(N4CCN(C(C)(C)CN5CCN(c6ccc7c(c6)C(=O)N(C6CCC(=O)NC6=O)C7=O)CC5)CC4)ncc3Cl)ccc2n(C)c1=O` (stereo not shown) [compound 279, 2-{[6-({5-chloro-2-[4-(1-{4-[2-(2,6-dioxopiperidin-3-yl)-1,3-dioxo-2,3-dihydro-1H-isoindol-5-yl]piperazin-1-yl}-2-methylpropan-2-yl)piperazin-1-yl]pyrimidin-4-yl}amino)-1-methyl-2-oxo-1,2-dihydroquinolin-3-yl]oxy}-N-methylacetamide]: the IC50 in experiment [1] lay within 10 to 50 nM. In experiment [1] (T47D), this molecule displayed a Dmax of 50 to 70%. In experiment [2], this molecule returned a concentration giving a half-maximal response (EC50) of 10 to 50 nM.
For `CNC(=O)COc1cc2cc(Nc3nc(N4CCN(CC(C)(C)N5CCN(c6ccc7c(c6)C(=O)N(C6CCC(=O)NC6=O)C7=O)CC5)CC4)ncc3Cl)ccc2n(C)c1=O` (stereo not shown) [compound 280, 2-{[6-({5-chloro-2-[4-(2-{4-[2-(2,6-dioxopiperidin-3-yl)-1,3-dioxo-2,3-dihydro-1H-isoindol-5-yl]piperazin-1-yl}-2-methylpropyl)piperazin-1-yl]pyrimidin-4-yl}amino)-1-methyl-2-oxo-1,2-dihydroquinolin-3-yl]oxy}-N-methylacetamide], in experiment [1], the half-inhibitory concentration (IC50) is 10 to 50 nM. In experiment [1] (T47D), this molecule came in with a Dmax of 50 to 70%. In addition, in experiment [2], the EC50 fell in the range of 10 to 50 nM.
As to `CNC(=O)COc1cc2cc(Nc3nc(N4CCN(CC5CCN(c6cnc(C(=O)NC7CCC(=O)NC7=O)cn6)CC5)CC4)ncc3Cl)ccc2n(C)c1=O` (stereo not shown) [compound 281, 5-[4-({4-[5-chloro-4-({1-methyl-3-[(methylcarbamoyl)methoxy]-2-oxo-1,2-dihydroquinolin-6-yl}amino)pyrimidin-2-yl]piperazin-1-yl}methyl)piperidin-1-yl]-N-(2,6-dioxopiperidin-3-yl)pyrazine-2-carboxamide], the IC50 in experiment [1] is below 10 nM. The Dmax in experiment [1] (T47D) is below 50%. In addition, in experiment [2], the EC50 lay in the range of 10 to 50 nM.
`CN1C(=O)CCc2cc(Nc3nc(N4CCN(CC5CCN(c6ccc7c(c6)C(=O)N(C6CCC(=O)NC6=O)C7=O)CC5)CC4)ncc3Cl)ccc21` (stereo not shown) [compound 369, 5-{4-[(4-{5-chloro-4-[(1-methyl-2-oxo-1,2,3,4-tetrahydroquinolin-6-yl)amino]pyrimidin-2-yl}piperazin-1-yl)methyl]piperidin-1-yl}-2-(2,6-dioxopiperidin-3-yl)-2,3-dihydro-1H-isoindole-1,3-dione] displayed an IC50 in experiment [1] (T47D cells) of at least 100 nM. Also, the 50% effective concentration (EC50) in experiment [2] was above 100 nM.
Regarding `CN1C(=O)CCc2cc(Nc3nc(N4CCN(CC5CCN(c6cccc7c6C(=O)N(C6CCC(=O)NC6=O)C7=O)CC5)CC4)ncc3Cl)ccc21` (stereo not shown) [compound 378, 4-{4-[(4-{5-chloro-4-[(1-methyl-2-oxo-1,2,3,4-tetrahydroquinolin-6-yl)amino]pyrimidin-2-yl}piperazin-1-yl)methyl]piperidin-1-yl}-2-(2,6-dioxopiperidin-3-yl)-2,3-dihydro-1H-isoindole-1,3-dione], in experiment [1] (T47D cells), the Dmax was below 50% and the half-inhibitory concentration (IC50) is at least 100 nM. The EC50 in experiment [2] was above 100 nM.
In experiment [1] (T47D), `CNC(=O)COc1cc2cc(Nc3nc(N4CC5(CCC(OC6CCN(c7ccc8c(c7)C(=O)N(C7CCC(=O)NC7=O)C8=O)CC6)CC5)C4)ncc3Cl)ccc2n(C(C)C)c1=O` (stereo not shown) [compound 444, 2-{[6-({5-chloro-2-[7-({1-[2-(2,6-dioxopiperidin-3-yl)-1,3-dioxo-2,3-dihydro-1H-isoindol-5-yl]piperidin-4-yl}oxy)-2-azaspiro[3.5]nonan-2-yl]pyrimidin-4-yl}amino)-2-oxo-1-(propan-2-yl)-1,2-dihydroquinolin-3-yl]oxy}-N-methylacetamide] returned a Dmax of 50 to 70%. In addition, in experiment [2], the concentration for half-maximal inhibition (IC50) was below 10 nM.
For the molecule `CNC(=O)COc1cc2cc(Nc3nc(N4CC5(CCC(OC6CCN(c7cccc8c7C(=O)N(C7CCC(=O)NC7=O)C8=O)CC6)CC5)C4)ncc3Cl)ccc2n(C(C)C)c1=O` (stereo not shown) [compound 445, 2-{[6-({5-chloro-2-[7-({1-[2-(2,6-dioxopiperidin-3-yl)-1,3-dioxo-2,3-dihydro-1H-isoindol-4-yl]piperidin-4-yl}oxy)-2-azaspiro[3.5]nonan-2-yl]pyrimidin-4-yl}amino)-2-oxo-1-(propan-2-yl)-1,2-dihydroquinolin-3-yl]oxy}-N-methylacetamide], the greatest degradation seen (Dmax) in experiment [1] (T47D) was at least 70%. Further, the IC50 in experiment [2] was below 10 nM.
For `CNC(=O)COc1cc2cc(Nc3nc(N4CCC(OC5CC6(CCN(c7cccc8c7CN(C7CCC(=O)NC7=O)C8=O)CC6)C5)CC4)ncc3Cl)ccc2n(C(C)C)c1=O` (stereo not shown) [compound 446, 2-{[6-({5-chloro-2-[4-({7-[2-(2,6-dioxopiperidin-3-yl)-1-oxo-2,3-dihydro-1H-isoindol-4-yl]-7-azaspiro[3.5]nonan-2-yl}oxy)piperidin-1-yl]pyrimidin-4-yl}amino)-2-oxo-1-(propan-2-yl)-1,2-dihydroquinolin-3-yl]oxy}-N-methylacetamide], in that order: at least 70% and below 10 nM.
For `CNC(=O)COc1cc2cc(Nc3nc(N4CCC5(CC4)CN(CC4CCN(c6ccc(C(=O)NC7CCC(=O)NC7=O)c(OC)c6)CC4)C5)ncc3Cl)ccc2n(C(C)C)c1=O` (stereo not shown) [compound 447, 4-[4-({7-[5-chloro-4-({3-[(methylcarbamoyl)methoxy]-2-oxo-1-(propan-2-yl)-1,2-dihydroquinolin-6-yl}amino)pyrimidin-2-yl]-2,7-diazaspiro[3.5]nonan-2-yl}methyl)piperidin-1-yl]-N-(2,6-dioxopiperidin-3-yl)-2-methoxybenzamide], in that order: at least 70% and 10 to 50 nM.
The corresponding values for `CNC(=O)COc1cc2cc(Nc3nc(N4CCC(CN5CC6(CCN(c7cccc8c7CN(C7CCC(=O)NC7=O)C8=O)CC6)C5)CC4)ncc3Cl)ccc2n(C(C)C)c1=O` (stereo not shown) [compound 448, 2-{[6-({5-chloro-2-[4-({7-[2-(2,6-dioxopiperidin-3-yl)-1-oxo-2,3-dihydro-1H-isoindol-4-yl]-2,7-diazaspiro[3.5]nonan-2-yl}methyl)piperidin-1-yl]pyrimidin-4-yl}amino)-2-oxo-1-(propan-2-yl)-1,2-dihydroquinolin-3-yl]oxy}-N-methylacetamide] are 50 to 70% and below 10 nM.
In the case of `CNC(=O)COc1cc2cc(Nc3nc(N4CCC5(CC4)CN(CC4CCN(c6cccc(C(=O)NC7CCC(=O)NC7=O)c6F)CC4)C5)ncc3Cl)ccc2n(C(C)C)c1=O` (stereo not shown) [compound 450, 3-[4-({7-[5-chloro-4-({3-[(methylcarbamoyl)methoxy]-2-oxo-1-(propan-2-yl)-1,2-dihydroquinolin-6-yl}amino)pyrimidin-2-yl]-2,7-diazaspiro[3.5]nonan-2-yl}methyl)piperidin-1-yl]-N-(2,6-dioxopiperidin-3-yl)-2-fluorobenzamide], the Dmax in experiment [1] (T47D) was at least 70%. The concentration for half-maximal inhibition (IC50) in experiment [2] was below 10 nM.
